Data from patent US10092575B2, “Substituted thiophene- and furan-fused azolopyrimidine-5-(6H)-one compounds” (DART NEUROSCIENCE (CAYMAN) LTD., priority 2012, dated 2018).

Target: human PDE1b enzyme (Homo sapiens (Human), UniProt Q01064)
Experiment: PDE1b inhibitory assay (IMAP TR-FRET)
Details: for PDE1b (pEC50): negative log of half-maximal molar inhibitory concentration, 200 nM FAM-cAMP, reported as ranges

SMILES	PDE1b (pEC50)	EC50
COc1ccc(Cn2c(=O)n3ncnc3c3cc(CN4CCN5C(=O)OCC5C4)sc32)cc1 (stereo not shown) [Example 40, 7-((6-(4-Methoxybenzyl)-5-oxo-5,6-dihydrothieno[3,2-e][1,2,4]triazolo[1,5-c]pyrimidin-8-yl)methyl)tetrahydro-1H-oxazolo[3,4-a]pyrazin-3(5H)-one]	>7	–
COc1ccc(Cn2c(=O)n3ncnc3c3cc(-c4cc(C(F)(F)F)nn4C)sc32)cc1 [Example 41, 6-(4-Methoxybenzyl)-8-(1-methyl-3-(trifluoromethyl)-1H-pyrazol-5-yl)thieno[3,2-e][1,2,4]triazolo[1,5-c]pyrimidin-5(6H)-one]	>7	–
COc1ccc(Cn2c(=O)n3ncnc3c3cc(-c4c(C)noc4C)sc32)cc1 [Example 42, 8-(3,5-Dimethylisoxazol-4-yl)-6-(4-methoxybenzyl)thieno[3,2-e][1,2,4]triazolo[1,5-c]pyrimidin-5(6H)-one]	–	100 to 1000 nM
COc1ccc(Cn2c(=O)n3ncnc3c3c(C)c(CN4CCCC4)sc32)cc1 [Example 43, 6-(4-Methoxybenzyl)-9-methyl-8-(pyrrolidin-1-ylmethyl)thieno[3,2-e][1,2,4]triazolo[1,5-c]pyrimidin-5(6H)-one]	–	100 to 1000 nM
COc1ccc(Cn2c(=O)n3ncnc3c3c(C)c(CN4CCOCC4)sc32)cc1 [Example 44, 6-(4-Methoxybenzyl)-9-methyl-8-(morpholinomethyl)thieno[3,2-e][1,2,4]triazolo[1,5-c]pyrimidin-5(6H)-one]	>7	–
COc1ccc(Cn2c(=O)n3ncnc3c3c(C)c(CN(C)C)sc32)cc1 [Example 45, 8-((Dimethylamino)methyl)-6-(4-methoxybenzyl)-9-methylthieno[3,2-e][1,2,4]triazolo[1,5-c]pyrimidin-5(6H)-one]	>7	–
COc1ccc(Cn2c(=O)n3ncnc3c3c(C)c(CN(C)C4CC4)sc32)cc1 [Example 46, 8-((Cyclopropyl(methyl)amino)methyl)-6-(4-methoxybenzyl)-9-methylthieno[3,2-e][1,2,4]triazolo[1,5-c]pyrimidin-5(6H)-one]	>7	–
COc1ccc(Cn2c(=O)n3ncnc3c3c(C)c(CN4CCC(O)CC4)sc32)cc1 [Example 47, 8-((4-Hydroxypiperidin-1-yl)methyl)-6-(4-methoxybenzyl)-9-methylthieno[3,2-e][1,2,4]triazolo[1,5-c]pyrimidin-5(6H)-one]	>7	–
COc1ccc(Cn2c(=O)n3ncnc3c3c(C)c(CN(CCO)Cc4ccccc4)sc32)cc1 [Example 48, 8-((Benzyl(2-hydroxyethyl)amino)methyl)-6-(4-methoxybenzyl)-9-methylthieno[3,2-e][1,2,4]triazolo[1,5-c]pyrimidin-5(6H)-one]	>7	–
COc1ccc(Cn2c(=O)n3ncnc3c3c(C)c(CN4CCNCC4)sc32)cc1 [Example 49, 6-(4-Methoxybenzyl)-9-methyl-8-(piperazin-1-ylmethyl)thieno[3,2-e][1,2,4]triazolo[1,5-c]pyrimidin-5(6H)-one]	–	100 to 1000 nM
COc1ccc(Cn2c(=O)n3ncnc3c3c(C)c(CNCC4(C)COC4)sc32)cc1 [Example 50, 6-(4-Methoxybenzyl)-9-methyl-8-((((3-methyloxetan-3-yl)methyl)amino)methyl)thieno[3,2-e][1,2,4]triazolo[1,5-c]pyrimidin-5(6H)-one]	>7	–
COc1ccc(Cn2c(=O)n3ncnc3c3c(C)c(CN4CCN(C(C)=O)CC4)sc32)cc1 [Example 51, 8-((4-Acetylpiperazin-1-yl)methyl)-6-(4-methoxybenzyl)-9-methylthieno[3,2-e][1,2,4]triazolo[1,5-c]pyrimidin-5(6H)-one]	>7	–
COc1ccc(Cn2c(=O)n3ncnc3c3c(C)c(CNCc4cccnc4)sc32)cc1 [Example 52, 6-(4-Methoxybenzyl)-9-methyl-8-(((pyridin-3-ylmethyl)amino)methyl)thieno[3,2-e][1,2,4]triazolo[1,5-c]pyrimidin-5(6H)-one]	>7	–
